The text below walks through data of patent US8993622B2, “Antiviral compounds” (Eirium AB, priority 2010, dated 2015).

The structures appear in SMILES notation. Where two headings read alike, the source gives them in different places.

One assay deals with Ad5. In words: microbe, parasite or virus in culture. The assay is classed as cell-based, human adenovirus.
In a further assay the test system is Ad11p. The experiment in a line: Quantitative real-time PCR of adenovirus DNA replication in A549 cells (Ad11p). It is filed as cell-based, human adenovirus. The protocol: Approximately 1×10^5 A549 cells were seeded in 24-well plates (Nunc) on the day before infection. On the day of infection, the cells in one well were counted to establish the amount of virions to be added. The growth medium was removed and compound and virus were added simultaneously to the cells in 700 μl DMEM with 0.75 g/l NaHCO3, 20 mM HEPES, 1×PEST, and 1% FBS. Compounds were added in concentrations ranging from 0.5 μM to 15 μM. The final concentration of DMSO was less than 1% in all samples. One pg of Ad virions was added per cell. The plate was incubated at 37° C. in 5% CO2 and 24 h after infection the cells were harvested, washed once, and resuspended in PBS. DNA was prepared from the samples using the QIAamp DNA Blood Mini Kit (QIAGEN, Solna, Sweden) according to the manufacturer's instructions. The design of primers and probes for analysis of various Ad types representing different adenovirus species with quantitative PCR has been described previously (Allard et al. 2001. Rapid typing of human adenoviruses by a general PCR combined with restriction endonuclease analysis. Journal Clinical Microbiology 39:498-505). Briefly, quantitative real-time PCR was carried out using a degenerate primer pair, Kadgen1 (forward)—Kadgen 2 (reverse) (5′-CWT ACA TGC ACA TCK CSG G-3′—SEQ ID NO:1, and 5′-CRC GGG CRA AYT GCA CCA G-3′—SEQ ID NO:2, respectively); DNA technology A/S, Aarhus, Denmark). This primer pair is specific for the conserved region of the Ad hexon gene and can detect all human Ads. Different FAM-TAMRA probes were used to quantitate Ads from different species: AdB1B2 (5′-6-FAM-AGGATGCTTCGGAGTACCTGAGTCCGG-TAMRA-3′—SEQ ID NO:3) for Ad11p (11) and AdC (5′-6-FAM-AGGACGCCTCGGAGTACCTGAGCCCCG-TAMRA-3′—SEQ ID NO:4) for Ad 5 (all from Applied Biosystems, Cheshire, UK). For Ads from species A, D, E and F the probe AdDF (5′-6-FAM-CCGGGCTCAGGTACTCCGAGGCGTCCT-3′—SEQ ID NO:5) was used (Applied Biosystems). Standard curves ranging from 5 to 5×10^5 genome copies were generated by serial dilution of known amounts of full-length Ad5 or Ad11 DNA. The Ad5 DNA standard was used for the AdDF probe system. […] The program for the real-time PCR was: 2 min at 50° C. to activate UNG, followed by amplification and quantitation (10 min at 95° C. and 40 cycles of 15 sec at 95° C., 1 min at 60° C.). […] Real-time PCR was performed in an ABI PRISM 7700 Sequence Detector (Applied Biosystems) and analyzed with Sequence Detector v1.7a software.
For orientation: In qPCR the cycle at which signal appears reflects the starting amount.

In a further assay the test system is HSV-1. The experiment in a line: qPCR of herpes simplex 1 replication in GMK cells. The assay is classed as cell-based, Herpes simplex virus 1. The settings on record: 24 h. The protocol: Same procedure as for qPCR for adenovirus quantification was followed with the exception of a few steps. Namely, 7×10^4 green monkey kidney (GMK) cells were seeded in 24-well plate the day before infection. Seventy-five virus particles of HSV-1 (stock 1351-95 P13) were added per cell. After 24 h incubation with the compound A02 at 37° C. in 5% CO2, the cells were harvested and DNA was prepared from 200 μL of the total 500 μL well-volume to include the DNA of possible released HSV-1 particles. The primers used in the qPCR assay were; Rune 1 (sense—position 137680-137697 in HSV-1 genome) (5′-GGC CTG GCT ATC CGG AGA-3′—SEQ ID NO:6) and Rune 2 (antisense—position 137742-137726 in HSV-1 genome) (5′-GCG CAG AGA CAT CGC GA-3′—SEQ ID NO:7), the final concentration in the reaction mixture of the primers were 300 nM. As in the adenovirus quantification a FAM-TAMRA labeled probe was used; Rune 3 (5′-CAGCACACGACTTGGCGTTCTGTGT-3′—SEQ ID NO:8) to a final concentration of 175 nM in the reaction mixture.

Setting [1] is: Human adenovirus sp., A549, read-out: % inhibition of DNA replication (SD).

Regarding `O=C(Nc1ccccc1C(=O)Nc1ccccc1C(=O)O)c1ccccc1` [Compound A02, 2-[[2-(Benzoylamino)benzoyl]amino]-benzoic acid], in the assay with Ad5 (A549 cells), the “effect on the replication of Ad5 (QPCR)” value is recorded as “significant inhibitory effect”. Moreover, the “selectivity index (SI=CC50/IC50) for Ad5” value in the assay with Ad5 (A549 cells) worked out at 54. The IC50 in the assay on Ad5 (Human adenovirus sp., A549, 24 h, read-out: IC50 for Ad5 replication (QPCR)) turned out to be 3.7 µM; in the assay with Ad11p (Human adenovirus sp., 24 h, read-out: IC50 for Ad11p replication (QPCR)), 2.9 µM. The inhibition at 5 µM in the assay with Ad5 (setting [1]) stood at 72%; in the assay with Ad5 (unidentified adenovirus, A549, read-out: % Inh. at 5 μM), 89 ± 5%; with Ad11p (Human adenovirus sp., Ad11p (B2), 5 μM, read-out: % inhibition of DNA replication (SD)), 79%. For the same compound, the inhibition at 15 µM came to 86% in the assay with Ad5 (setting [1]); 96 ± 1% in the assay on Ad5 (unidentified adenovirus, A549, read-out: % Inh. at 15 μM); 79% in the assay with Ad11p (Human adenovirus sp., Ad11p (B2), 15 μM, read-out: % inhibition of DNA replication (SD)). In the assay on Ad5 (unidentified adenovirus, A549), this compound showed an EC50 of 3.7 µM. In addition, the “selectivity index (SI=CC50/IC50) for Ad11p” value in the assay with Ad11p was determined as 68. Besides, the “inhibitory effect on herpes simplex 1 replication” value in the assay with HSV-1 was “about the same as observed with the representatives of all the six human adenovirus species”.

By IC50 is commonly meant the concentration that gives 50% inhibition. The term EC50 denotes the concentration that produces a half-maximal response.
